Converted amounts (≈) assume the structure as drawn.
Key:
[1] = solubility of the dye in water; format: physicochemical
[2] = absorption of the dye: lambda max and E max; format: physicochemical

SMILES | solubility ([1]; 25° C., pH 9.5) [mg/mL] | E max [2] | lambda max [2] [nm] | solubility ([1]; 25° C.) [mg/mL] | solubility ([1]; temperature and pH not given) [mg/mL] | solubility ([1]; 25° C., pH 8.5) [mg/mL]
O=C(O)c1ccc(Nc2ccc3cc(S(=O)(=O)O)c(N=Nc4ccc(N=Nc5cccc(C(=O)O)c5)c5ccc(S(=O)(=O)O)cc45)c(O)c3c2)cc1 [Example 4] | – | about 24,000 | 588 | – | – | 130 to 150 (≈ 175 to 202 mM)
O=C(O)c1cccc(N=Nc2ccc(N=Nc3c(S(=O)(=O)O)cc4ccc(Nc5cccc(C(=O)O)c5)cc4c3O)c3cc(S(=O)(=O)O)ccc23)c1 [Example 6] | – | about 15,000 | 578 | – | ~100 (≈ 135 mM) | –

Next, values leading:

solubility ([1]; 25° C., pH 9.5) [mg/mL] | E max [2] | lambda max [2] [nm] | solubility ([1]; 25° C.) [mg/mL] | solubility ([1]; temperature and pH not given) [mg/mL] | solubility ([1]; 25° C., pH 8.5) [mg/mL] | SMILES
~80 (≈ 121 mM) | about 24,500 | 558 | – | – | – | O=C(O)c1ccc(Nc2ccc3cc(S(=O)(=O)O)c(N=Nc4ccc(N=Nc5cccc(C(=O)O)c5)c5ccccc45)c(O)c3c2)cc1 [Example 1]
– | about 22,000 | 567 | ~80 (≈ 121 mM) | – | – | O=C(O)c1ccc(N=Nc2ccc(N=Nc3c(S(=O)(=O)O)cc4ccc(Nc5ccc(C(=O)O)cc5)cc4c3O)c3ccccc23)cc1 [Example 2]
– | about 23,500 | 553 | – | ~80 (≈ 121 mM) | – | O=C(O)c1ccc(N=Nc2ccc(N=Nc3c(S(=O)(=O)O)cc4ccc(Nc5cccc(C(=O)O)c5)cc4c3O)c3ccccc23)cc1 [Example 3]
